The results in this text go back to ChEMBL document CHEMBL1201862, “PubChem BioAssay data set” (2004).

Values joined by “and” are separate entries in the source; they are usually repeats but may differ in a detail not shown here. Equal entries are not always repeated.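 Cells were grown in 96-well plates and exposed to each compound for 48 hours at five concentrations; endpoints were interpolated linearly between bracketing concentrations, or set to the highest concentration if not reached. Here, GI50 denotes the concentration required for 50% inhibition of growth.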 Active and inactive are the calls of the source. Rule as the data show it: active = GI50 up to about 1.1 µM and inactive = higher.

Test systems include SF-295; NCI-H23; BT-549; HOP-62; SNB-75; TK-10; NCI-H522; COLO 205; IGROV-1; U-251; UACC-62; PC-3; HCT-116; NCI-H460; HCT-15; MDA-MB-231; MCF7; SN12C; MDA-N; OVCAR-4.
What all share (test): growth of human tumour cells (NCI), 48 h

As to `C[Si](C)(C)C#Cc1cc(-c2nc3ccccc3s2)ccc1N`, the GI50 in the test with SF-295 was 18.6 µM (inactive); with NCI-H23 it was 18.5 µM (inactive); with BT-549 it was 18.3 µM (inactive); in the test with HOP-62, 16.2 µM (inactive); with SNB-75 it was 12.7 µM (inactive); with TK-10 it was 11.7 µM (inactive). Moreover, the GI50 is 13.9 µM (inactive) with NCI-H522; 15.5 µM (inactive) in the test with COLO 205; < 0.01 µM (active) with IGROV-1; 19.2 µM (inactive) in the test with U-251; 16.3 µM (inactive) in the test on UACC-62; 16.2 µM (inactive) with PC-3. The GI50 was 13.7 µM (inactive) in the test on HCT-116; 15.9 µM (inactive) with NCI-H460; 16.9 µM with HCT-15; 17.2 µM (inactive) in the test on MDA-MB-231; 0.491 µM (active) with MCF7; 15.5 µM (inactive) in the test on SN12C. In addition, the GI50 in the test on MDA-N is 17.8 µM (inactive); in the test on OVCAR-4, 14.9 µM (inactive).

On to `OC(c1cc(C(F)(F)F)nc2c(Cl)cc(Cl)cc12)C1CCCCN1` (centres undefined), for which the GI50 is 12.2 µM (inactive) in the test with SF-295; 8.55 µM (inactive) in the test with NCI-H23; 14.5 µM (inactive) in the test with BT-549; 3.77 µM (inactive) with HOP-62; 11.8 µM (inactive) in the test on SNB-75; 7.53 µM (inactive) with NCI-H522. Also, the GI50 is 3.22 µM (inactive) in the test on COLO 205; 6.4 µM (inactive) in the test on IGROV-1; 25.4 µM (inactive) in the test on U-251; > 32.6 µM (inactive) in the test with UACC-62; > 22.5 µM (inactive) in the test with PC-3; 13.6 µM (inactive) with HCT-116. Also, the GI50 is 6.82 µM (inactive) in the test on NCI-H460; 13 µM in the test with HCT-15; > 22.1 µM (inactive) in the test on MDA-MB-231; 12.5 µM (inactive) in the test on MCF7; 77.1 µM (inactive) with MDA-N; 5.01 µM (inactive) in the test on OVCAR-4.

On to `COC(=O)[C@@H]1O[C@]12[C@@H](CO[Si](C)(C)C(C)(C)C)O[C@@H](n1cc(C)c(=O)[nH]c1=O)[C@@H]2O[Si](C)(C)C(C)(C)C`, for which the GI50 is 21.2 µM (inactive) in the test on SF-295; 15.8 µM (inactive) with NCI-H23; 15.9 µM (inactive) in the test on BT-549; 26.2 µM (inactive) in the test with HOP-62; 23.1 µM (inactive) with SNB-75; 45 µM (inactive) with TK-10. The GI50 with NCI-H522 was 11.9 µM (inactive); with COLO 205, 28.4 µM (inactive); in the test with IGROV-1, 5.64 µM (inactive); in the test with U-251, 12.3 µM (inactive); in the test on UACC-62, 17.9 µM (inactive); with PC-3, 20.4 µM (inactive). The GI50 was 15.2 µM (inactive) in the test on HCT-116; 11.6 µM (inactive) in the test with NCI-H460; 4.35 µM in the test on HCT-15; 19.9 µM (inactive) in the test with MDA-MB-231; 13.8 µM (inactive) in the test with SN12C; 12.9 µM (inactive) in the test on MDA-N. For the same molecule, in the test on OVCAR-4, the GI50 was 32.5 µM (inactive).

Turning to `COc1ccc(N[C@H]([C@@H](c2ccccc2)[S+]([O-])c2ccc(C)cc2)C(F)(F)F)cc1` (some centres undefined), the GI50 with SF-295 was 82.8 µM (inactive); in the test on NCI-H23, 41.5 µM (inactive); with BT-549, 38.6 µM (inactive); in the test on SNB-75, 24.8 µM (inactive); in the test on TK-10, 74.1 µM (inactive); with NCI-H522 it was 56.5 µM (inactive). Also, the GI50 with COLO 205 is 37.2 µM (inactive); in the test with IGROV-1, 48.8 µM (inactive); in the test on U-251 it was 17.9 µM (inactive); in the test with UACC-62, 29.1 µM (inactive); with PC-3, 21.1 µM (inactive); in the test on HCT-116 it was 29.4 µM (inactive). The GI50 with NCI-H460 is 50.1 µM (inactive); with HCT-15, 30 µM; with MDA-MB-231, 32.9 µM (inactive); in the test on MCF7 it was 38.9 µM (inactive); in the test on SN12C, 71.8 µM (inactive); in the test with MDA-N, 74.8 µM (inactive). For the same molecule, in the test with OVCAR-4, the GI50 was 26 µM (inactive).

As for `CC(=O)OCC1OC(N2C(=O)NC(=O)C3C=C4CCCCC4=CC32)C(OC(C)=O)C1OC(C)=O` (centres undefined), the GI50 with SF-295, in the test with NCI-H23, in the test on BT-549, with TK-10, in the test with NCI-H522 and with COLO 205 was > 100 µM (inactive) throughout. Also, the GI50 with IGROV-1, with U-251, in the test with UACC-62, with PC-3, with HCT-116 and with NCI-H460 was > 100 µM (inactive) throughout. Further, the GI50 in the test on HCT-15 was more than 100 µM; with MDA-MB-231, > 100 µM (inactive); with MCF7, > 100 µM (inactive); with SN12C, > 100 µM (inactive); in the test on MDA-N, > 100 µM (inactive); in the test with OVCAR-4, > 100 µM (inactive).

Regarding `O=C1CC(=O)c2c(O)cc(O)c(c2O)-c2c(ccc(O)c2O)C2=CC(=O)c3c(O)cc(O)c(c3O2)-c2c1ccc(O)c2O.O=C1CC2(O)Oc3c1c(O)cc(O)c3-c1c(ccc(O)c1O)-c1cc(=O)c3c(O)cc(O)c(c3o1)-c1c2ccc(O)c1O`, the GI50 in the test with SF-295, with NCI-H23, in the test with BT-549, with HOP-62, in the test with SNB-75 and in the test with TK-10 was > 50 µM (inactive) in each case. Further, the GI50 with COLO 205, in the test with IGROV-1, in the test with U-251, with UACC-62, with PC-3 and in the test with HCT-116 was > 50 µM (inactive) throughout. Besides, the GI50 in the test with NCI-H460 is > 50 µM (inactive); with HCT-15 it was more than 50 µM; in the test on MDA-MB-231 it was > 50 µM (inactive); in the test with MCF7 it was > 50 µM (inactive); in the test with SN12C, > 50 µM (inactive); with MDA-N, > 50 µM (inactive). For the same molecule, the GI50 in the test with OVCAR-4 is > 50 µM (inactive).

On to `COC12COC(=O)C1C(c1ccc3c(c1)OCO3)c1cc3c(cc1O2)OCO3` (centres undefined), for which the GI50 was 6.95 µM (inactive) with SF-295; 35.6 µM (inactive) in the test on NCI-H23; 15.6 µM (inactive) with BT-549; 16 µM (inactive) in the test on HOP-62; 7.71 µM (inactive) in the test with SNB-75; 29.2 µM (inactive) in the test with TK-10. The GI50 was 6.14 µM (inactive) with NCI-H522; 9.42 µM (inactive) with COLO 205; 20.8 µM (inactive) with IGROV-1; 32 µM (inactive) in the test on U-251; 15.8 µM (inactive) in the test with UACC-62; 12.6 µM (inactive) with PC-3. Moreover, the GI50 in the test with HCT-116 was 11.1 µM (inactive); in the test on NCI-H460, 10.5 µM (inactive); with HCT-15, 7.08 µM; in the test on MDA-MB-231, 25.4 µM (inactive); in the test on MCF7 it was 14.3 µM (inactive); with SN12C, 40 µM (inactive). Further, the GI50 is 2.69 µM (inactive) in the test with MDA-N and 36.5 µM (inactive) in the test on OVCAR-4.

Turning to `C/C(=N\Nc1nc2ccccc2[nH]1)c1cccc[n+]1[O-]`, the GI50 is 3.48 µM (inactive) in the test with SF-295; > 100 µM (inactive) in the test on NCI-H23; > 100 µM (inactive) with BT-549; > 100 µM (inactive) with HOP-62; 67.1 µM (inactive) in the test on TK-10; > 100 µM (inactive) in the test with NCI-H522. Further, the GI50 in the test with COLO 205 is 65.8 µM (inactive); in the test on IGROV-1, 63.4 µM (inactive); with U-251, 75 µM (inactive); with UACC-62, 87.1 µM (inactive); in the test with PC-3 it was > 100 µM (inactive); in the test with HCT-116, 88.3 µM (inactive). The GI50 with NCI-H460 was 49.2 µM (inactive); in the test with HCT-15 it was 51.5 µM; with MDA-MB-231, > 100 µM (inactive); in the test with MCF7, > 100 µM (inactive); with SN12C, > 100 µM (inactive); with MDA-N, > 100 µM (inactive). Further, in the test with OVCAR-4, the GI50 was > 100 µM (inactive).

Consider `O=C(O)C1(C(O)c2ccccc2)SCCCS1` (centres undefined), for which the GI50 in the test with SF-295, in the test on NCI-H23, in the test with BT-549, in the test on HOP-62, in the test with SNB-75 and with TK-10 was > 10 µM (inactive) each time. Besides, the GI50 with IGROV-1, with U-251, in the test on UACC-62, with PC-3, with HCT-116 and in the test with NCI-H460 was > 10 µM (inactive) each time. Further, the GI50 is more than 10 µM in the test on HCT-15; > 10 µM (inactive) with MDA-MB-231; > 10 µM (inactive) in the test on MCF7; > 10 µM (inactive) with SN12C; > 10 µM (inactive) with MDA-N.

With `Oc1ccc(-c2nc3cc(C(F)(F)F)ccc3s2)cc1`, the GI50 with SF-295 was 15 µM (inactive); in the test on NCI-H23, 15.9 µM (inactive); with BT-549 it was 15.1 µM (inactive); in the test with TK-10, 18.8 µM (inactive); with NCI-H522 it was 12.6 µM (inactive); in the test with COLO 205, 18.8 µM (inactive). The GI50 in the test with IGROV-1 was 11.2 µM (inactive); in the test on U-251 it was 16.1 µM (inactive); in the test with UACC-62, 13.9 µM (inactive); with PC-3, 14.5 µM (inactive); with HCT-116, 14.5 µM (inactive); with NCI-H460 it was 15.4 µM (inactive). Moreover, the GI50 in the test with HCT-15 was 10.1 µM; in the test with MDA-MB-231 it was 14.2 µM (inactive); in the test on MCF7, 10.2 µM (inactive); in the test with SN12C, 17.7 µM (inactive); in the test on MDA-N it was 17.7 µM (inactive).

Consider `COc1cc(NC(C)CCCN)c2ncccc2c1` (centres undefined) [PRIMAQUINE PHOSPHATE], for which the GI50 was 98.2 µM (inactive) and 52.4 µM (inactive) with SF-295; > 100 µM (inactive) and > 90.6 µM (inactive) with NCI-H23; 41.1 µM (inactive) with BT-549; 47.2 µM (inactive) and 24.1 µM (inactive) in the test on SNB-75; 49.8 µM (inactive) and > 94.4 µM (inactive) with TK-10; 90.6 µM (inactive) and 52.1 µM (inactive) with NCI-H522. In addition, the GI50 with COLO 205 is 17.8 µM (inactive) and 32.5 µM (inactive); in the test with IGROV-1, 51.4 µM (inactive) and > 88.7 µM (inactive); with PC-3, 33.6 µM (inactive); with MDA-MB-231, 43.7 µM (inactive); with MCF7, 16.4 µM (inactive); with MDA-N, 29.6 µM (inactive). Moreover, the GI50 in the test on OVCAR-4 is > 88.3 µM (inactive).
